Experimental data from PubChem BioAssay (NCI).
“And” between values parts separate entries of the source, which are not always exact repeats. Equal values may be shown once.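 Cells were grown in 96-well plates and exposed to each compound for 48 hours at five concentrations; endpoints were interpolated linearly between bracketing concentrations, or set to the highest concentration if not reached. The concentration for 50% growth inhibition is given as GI50. TGI marks complete inhibition of growth.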

Assays:
Assay in all cases: DTP human tumour cell line panel, 48 h
[1] = test system: SN12C renal
[2] = test system: A549 NSCLC
[3] = test system: LOX IMVI melanoma
[4] = test system: SR leukemia
[5] = test system: SNB-75 CNS
[6] = test system: MCF7 breast
[7] = test system: OVCAR-4 ovarian
[8] = test system: MDA-N
[9] = test system: CCRF-CEM leukemia
[10] = test system: SF-539 CNS
[11] = test system: HOP-92 NSCLC

| SMILES | TGI [1] | TGI [2] | TGI [3] | TGI [4] | TGI [5] | TGI [6] | TGI [7] | TGI [8] | TGI [9] | TGI [10] | TGI [11] | GI50 [1] | GI50 [4] | GI50 [7] | GI50 [9] | GI50 [10] | GI50 [11] |
| --- | --- | --- | --- | --- | --- | --- | --- | --- | --- | --- | --- | --- | --- | --- | --- | --- | --- |
| c1ccc(C2=NC3(CCCCC3)N(c3nc4ccccc4s3)N2)nc1 | 69.9 µM | > 100 µM | 51.6 µM | 26.8 µM | 76.6 µM | > 100 µM | > 100 µM | 86.5 µM | 87.2 µM | > 100 µM | > 100 µM |  |  |  |  |  |  |
| O=c1[nH]c(=O)n(C2CC(O)C(CO)O2)cc1I (stereo unspecified) | > 100 µM | > 100 µM | > 100 µM | > 100 µM | > 100 µM | > 100 µM | > 100 µM | > 100 µM | > 100 µM | > 100 µM | > 100 µM |  |  |  |  |  |  |
| CC(C)(C)OC(=O)CN1CCNCCNCC1 | > 100 µM | > 100 µM | > 100 µM | > 100 µM | > 100 µM | > 100 µM | > 100 µM | > 100 µM | > 100 µM | > 100 µM | > 100 µM |  |  |  |  |  |  |
| O=C1NC(N/N=C\C(O)C(O)C(O)CO)=N/C1=C/c1ccccc1 (stereo unspecified) | > 100 µM | > 100 µM | > 100 µM | > 100 µM | > 100 µM | > 100 µM | > 100 µM and 79.8 µM | > 100 µM | > 100 µM | > 100 µM | > 100 µM | > 100 µM and 46.8 µM | > 100 µM and 44.1 µM | 84.1 µM and 23.4 µM | 65.9 µM and 32.7 µM | > 100 µM and 34.3 µM | > 100 µM and 45 µM |
| CCOc1cc2c(cc1O)/C(=N\N)C[C@@H]1[C@@H]2CC[C@]2(C)[C@@H](O)CC[C@@H]12 | > 42.4 µM | > 100 µM | > 41.5 µM | > 100 µM | > 25.8 µM | > 100 µM | > 100 µM | 4.53 µM | > 100 µM | 38 µM | 49.9 µM |  |  |  |  |  |  |
